Results taken from publication PMC3472544, “Glycosaminoglycan analogs as a novel anti-inflammatory strategy” (Frontiers in Immunology, 2012).

Assays:
CCL5 binding to heparin = target: T1, CCL5 binding to heparin (Homo sapiens, UniProt P13501); assay: Immobilized heparin competition binding assay ([125I]-CCL5 on heparin-Sepharose beads); settings: [125I]-CCL5 0.05 nM, 4 h, read-out: IC50 for the inhibition of CCL5 binding to heparin
T1 sequence (P13501 24-91): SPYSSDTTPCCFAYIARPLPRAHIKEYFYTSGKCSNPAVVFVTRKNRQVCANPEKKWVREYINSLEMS
Description: Competition experiments were performed as described elsewhere (Severin et al., [2010]). Briefly, heparin-Sepharose beads (Sepharose beads or binding buffer as a background control) and increasing amounts of antagonist were added to each well of a 96 well filter plate. [^125I]-CCL5, was added last, to reach a final concentration of 0.05 nM. The plates were incubated on a shaker at room temperature for 4 h. Each experiment was performed in triplicate, and the results are given as the mean of the three assays.

[1] = tested on: paw thickness after SRBC challenge; assay: Delayed-type hypersensitivity (DTH) model, SRBC; type: in vivo, BALB/c mice; settings: for inhibition of paw swelling: oligosaccharides 10 mg/kg s.c. at −30 min and +8 h, dexamethasone by oral gavage 30 min before challenge, paw thickness at 21 h
Description: Female BALB/c mice were immunized with 2 × 10^6 sheep red blood cells (SRBC) by subcutaneous route (s.c.) at the base of the tail. Five days later mice were challenged with an s.c. injection of 2 × 10^6 SRBC into the softpaw of the left hindpaw. The paw thickness was measured 21 h later and the difference calculated based on values obtained before challenge. MHxS, NisS, and StachS were injected s.c. at a dose of 10 mg/kg, 30 min before and 8 h after challenge. Vehicle was 0.02% BSA diluted in PBS. The reference compound, dexamethasone, was diluted in saline and administered by oral gavage 30 min before challenge. Group sizes were 6 for sham and 8 for all other groups.
Figure 5 Inhibition of delayed-type hypersensitivity. Immunization was performed by s.c. administration of SRBC, followed by a challenge in the hindpaw 5 days later. The persulfated oligosaccharides (10 mg/kg) were administered 30 min prior and 8 h after the challenge. Dexamethasone was used as a positive control, and paw thickness was measured 21 h following the challenge. The statistical differences vs. the control group (mice challenged with SRBC and treated with vehicle for the compounds 0.02% BSA diluted in PBS) are shown whenever present and indicated by ^*P <0.05>; ^***P < 0.001. TEXT PRINTED IN THE PICTURE: dexamethasone: 47% *** | MHxS: 39% *** | NisS: 20% * | StachS: 41% ***

[2] = tested on: citrated plasma from healthy human blood donors; assay: Anti-coagulation assay: Activated Partial Thromboplastin Time (APTT); settings: calibrated against heparin standard curve, samples at 1 mg/ml (MHxS 0.1 mg/ml)
Description: Activated Partial Thromboplastin Time (APTT) assays were performed by GlycoMar. 10 mg/ml stock solutions of NisS, StachS, and MHxS, were prepared using dH2O and stored at −20°C until use. Samples were tested at 1 mg/ml. All further dilutions were in dH2O. Prior to each assay, a calibration curve of heparin ranging from 0 to 10 IU/ml was prepared using 5th International Standard Heparin. (GlycoMar ID:92, batch 97/578, Expiry 21SEP10). Fresh human blood from healthy human blood donors was collected into S-Monovette Coagulation tubes from Sarstedt. Nine parts of freshly drawn venous blood were collected into one part trisodium citrate (0.106 M). Plasma was obtained by centrifugation at 1500 × g for 10 min. Each of the carbohydrate samples was diluted and tested at 1 mg/ml in the first instance. MHxS was subsequently tested at 0.1 mg/ml to be within the time frame of the standard curve. The APTT assay was run on an ACL 9000 Coagulation Analyzer. The coagulation time of HemosIL Normal Control (cat no. 0020003110) was checked. Samples, standards and controls were mixed 1:10 with citrated plasma in a test tube, loaded into the ACL 9000 carousel and analyzed using the extended APTT run program.

[3] = tested on: leukocyte recruitment into the synovial (knee) cavity; assay: Antigen-induced arthritis (AIA) model, mBSA; type: in vivo, mice; settings: 50 μg s.c. immediately after mBSA; cells counted at 24 h
Description: Induction of disease was performed by injection of 10 μg methylated bovine serum albumin (mBSA) as a 10 μL injection into the synovial cavity. Test compounds, at a total dose of 50 μg were injected in a total volume of 200 μL subcutaneously immediately after mBSA administration. Group sizes were 4–6 animals. Total leukocytes (A), neutrophils (B), and mononuclear cells (C) in the synovial cavity were enumerated 24 h after mBSA injection (Sachs et al., [2011]).
Figure 6 Inhibition of antigen induced arthritis. An injection of mBSA into the synovial cavity was used to induce disease. 50 μg of the inhibitors were administered s.c. immediately after the mBSA injection, and the cells in the synovial cavity were enumerated 24 h later. (A) Total cells; (B) […]; (C) mononuclear cells. ^*P < 0.05.

CCL5 = target: T2, CCL5 (Homo sapiens, UniProt P13501); assay: NMR-based CCL5 binding, Kd from 15N-HSQC titration; settings: for Kd: determined by protein NMR, pH 3.2, 30°C; for selective binding to CCL5 in the NMR screen: 206 compound library, 200 μM, HSQC chemical shift changes
T2 construct: made in house
T2 sequence (P13501 24-91): T1 sequence (P13501 24-91)
Description: These molecules were charged, and contained multiple acid groups, such as carboxylates and sulfonates. In addition, many of the molecules were aromatic, to provide some hydrophobicity. The library was pooled into sets containing five compounds and these pools mixed at 200 μM, with an equal concentration of CCL5 at 30°C, and a heteronuclear single quantum coherence (HSQC) spectrum recorded immediately. For pools that induced significant change in the protein chemical shifts, a second round of screening was performed in which each of the five compounds was added individually to the protein solution. […] Dissociation constants were obtained by fitting the recorded chemical shift as a function of increasing ligand concentrations with: (1) δobs=δf+LbΔb −f in which δobs is the observed chemical shift at each point of the titration curve, δf is the chemical shift of the free protein and Δb − f is the difference in chemical shift between free and fully complexed protein.

CCR5 [4] = target: T3, CCR5 (Homo sapiens, UniProt P13501); assay: Equilibrium competition receptor binding assay (SPA), [125I]-CCL5 on CHO/CCR5 membranes; settings: SPA-based equilibrium competition binding
T3 construct: expressed in transfected cells; host or cells: CHO
T3 sequence (P13501 24-91): T1 sequence (P13501 24-91)
Description: Briefly, serial dilutions of the compounds were prepared in binding buffer (50 mM TrisHCl, pH 7.2, containing 1 mM CaCl2, 5 mM MgCl2, and 0.5% BSA). […] The plates were incubated for 4 h. Radioactivity was counted with a beta counter for 1 min/well and the data analyzed using Graphpad Prism software. The radioligand was stored at −20°C and was used until the cpm of bound chemokine was ≥ 300 cpm.

CCR1 = target: T4, CCR1 (Homo sapiens, UniProt P32246); assay: Equilibrium competition receptor binding assay with CCL3 as the ligand, CCR1; settings: data not shown
T4 construct: expressed in transfected cells; host or cells: CHO
T4 sequence (P32246 1-355): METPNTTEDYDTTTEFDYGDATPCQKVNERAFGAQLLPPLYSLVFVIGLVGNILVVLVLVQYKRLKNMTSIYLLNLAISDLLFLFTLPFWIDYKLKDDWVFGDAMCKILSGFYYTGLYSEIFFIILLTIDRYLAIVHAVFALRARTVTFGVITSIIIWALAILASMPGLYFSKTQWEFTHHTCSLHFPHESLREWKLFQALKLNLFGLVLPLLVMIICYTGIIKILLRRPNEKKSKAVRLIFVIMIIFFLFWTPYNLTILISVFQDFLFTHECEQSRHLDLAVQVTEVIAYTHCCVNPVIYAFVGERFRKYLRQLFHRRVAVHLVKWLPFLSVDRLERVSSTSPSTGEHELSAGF
Description: (§1) The assays were carried out on membranes from CHO transfectants expressing CCR1 or CCR5, as described previously (Severin et al., [2010]). Briefly, serial dilutions of the compounds were prepared in binding buffer (50 mM TrisHCl, pH 7.2, containing 1 mM CaCl2, 5 mM MgCl2, and 0.5% BSA). Equal volumes of membrane preparation at 80 μg/ml and scintillation proximity assay (SPA) beads were mixed before adding them to a 96 well filter plate, giving a final membrane concentration in the assay of 20 μg/ml. ^125I labeled chemokines were dissolved in binding buffer at a concentration of 0.4 nM. […] The plates were incubated for 4 h. Radioactivity was counted with a beta counter for 1 min/well and the data analyzed using Graphpad Prism software. The radioligand was stored at −20°C and was used until the cpm of bound chemokine was ≥ 300 cpm.
(§2) A study of the relative affinity of Molecule 1 toward CCL5 and heparin molecules was first evaluated by competition experiments in which CCL5, immobilized on heparin beads, was competed off the beads by increasing concentrations of Molecule 1. […] Since the principal GAG binding motif of CCL5, the BBXB motif on the 40s loop, plays a role in binding to CCR1, we determined the capacity of Molecule 1 to inhibit the binding of the chemokine CCL5 to its receptors CCR1 and CCR5 using equilibrium competition binding with a SPA-based assay.

CCR1 (Homo sapiens) = target: T5, CCR1 (Homo sapiens); assay: Equilibrium competition receptor binding assay (SPA), [125I]-CCL5 on CHO/CCR1 membranes; settings: [125I]-CCL5 0.1 nM, CHO/CCR1 membranes, SPA; read-out: IC50 for the inhibition of CCL5 binding to CCR1
T5 construct: expressed in transfected cells; host or cells: CHO
Description: The assays were carried out on membranes from CHO transfectants expressing CCR1 or CCR5, as described previously (Severin et al., [2010]). Briefly, serial dilutions of the compounds were prepared in binding buffer (50 mM TrisHCl, pH 7.2, containing 1 mM CaCl2, 5 mM MgCl2, and 0.5% BSA). Equal volumes of membrane preparation at 80 μg/ml and scintillation proximity assay (SPA) beads were mixed before adding them to a 96 well filter plate, giving a final membrane concentration in the assay of 20 μg/ml. ^125I labeled chemokines were dissolved in binding buffer at a concentration of 0.4 nM. The assay was started by the addition of 25 μL [^125I]-CCL5 to give a concentration of 0.1 nM, in a final assay volume of 100 μL. The plates were incubated for 4 h. Radioactivity was counted with a beta counter for 1 min/well and the data analyzed using Graphpad Prism software. The radioligand was stored at −20°C and was used until the cpm of bound chemokine was ≥ 300 cpm.

[5] = tested on: CCL5-induced cellular recruitment into the peritoneal cavity; assay: CCL5-induced peritoneal cellular recruitment; type: in vivo, mouse; settings: CCL5 binders administered 30 min prior to CCL5 (Figure 4A, B)
CCR5 [6] = target: T6, CCR5 (Homo sapiens, UniProt P51681); assay: Equilibrium competition receptor binding assay with CCL3 as the ligand, CCR5; settings: data not shown
T6 construct: expressed in transfected cells; host or cells: CHO
T6 sequence (P51681 whole entry, species assumed): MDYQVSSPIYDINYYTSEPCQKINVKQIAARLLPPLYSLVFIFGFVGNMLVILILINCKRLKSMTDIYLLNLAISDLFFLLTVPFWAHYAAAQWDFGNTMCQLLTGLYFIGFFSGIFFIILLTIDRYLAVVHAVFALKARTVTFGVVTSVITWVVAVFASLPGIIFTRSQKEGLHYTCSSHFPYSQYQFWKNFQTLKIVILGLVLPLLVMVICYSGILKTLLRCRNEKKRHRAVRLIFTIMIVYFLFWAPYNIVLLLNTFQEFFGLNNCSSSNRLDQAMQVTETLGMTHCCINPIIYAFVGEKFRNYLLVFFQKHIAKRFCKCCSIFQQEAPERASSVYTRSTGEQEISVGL
Description: as §1, §2

With persulfated Nis [NisS] the IC50 (CCL5 binding to heparin) was 5.89 ± 0.04 µM, the “inhibition of paw swelling” value [1] was 20% and the “Anticoagulant activity (heparin-equivalent)” value [2] was 6.87 ± 3.22 IU/mg. For the same compound, the “mononuclear cell recruitment into the knee cavity” value [3] was “statistically significant reduction” and the “neutrophil recruitment into the knee cavity” value [3] was “statistically significant reduction”.

In the case of O=C(O)c1cc(NS(=O)(=O)c2ccc([N+](=O)[O-])cc2)cc(S(=O)(=O)O)c1O [Molecule 9], the Kd (CCL5) is reported as 300 µM.

For CC(=O)Nc1ccc(S(=O)(=O)Nc2cc(C(=O)O)c(O)c(S(=O)(=O)O)c2)cc1 [Molecule 16], the Kd (CCL5) was 40 µM.

For O=C(O)c1cc(S(=O)(=O)Nc2cc(C(=O)O)c(O)c(S(=O)(=O)O)c2)ccc1O [Molecule 14], the Kd (CCL5) was < 1 µM.

O=C(O)c1cc(S(=O)(=O)O)c(O)cc1O [Molecule 11] was tested, and the Kd (CCL5) was < 10 µM.

Work on O=C(O)c1ccccc1O [Molecule 4] yielded a Kd (CCL5) of 350 µM.

With CC(=O)Nc1cc(C(=O)O)c(O)c(S(=O)(=O)O)c1 [Molecule 8] the “selective binding to CCL5 in the NMR screen” value (from here on “selective binding to CCL5”) (CCL5) was “confirmed to be selectively binding to CCL5” and the Kd (CCL5) was 20 µM.

In the case of Nc1ccc(O)c(S(=O)(=O)O)c1 [Molecule 6], the Kd (CCL5) is reported as 500 µM.

For O=C(O)c1c(O)ccc(S(=O)(=O)O)c1O [Molecule 10], the “selective binding to CCL5” value (CCL5) was “confirmed to be selectively binding to CCL5” and the Kd (CCL5) was 18 µM.

O=C(O)c1c(O)c(S(=O)(=O)O)cc(S(=O)(=O)O)c1O [Molecule 12] gave a Kd (CCL5) of 1 to 5 µM.

With C[C@@H]1C[C@H]2[C@@H]3CCC4=CC(=O)C=C[C@]4(C)[C@@]3(F)[C@@H](O)C[C@]2(C)[C@@]1(O)C(=O)CO [dexamethasone, reference compound] the “inhibition of paw swelling” value [1] was 47%.

Compound O=S(=O)(O)c1ccccc1O [Molecule 13] has a Kd (CCL5) of 50 µM.

In the case of Nc1cc(C(=O)O)c(O)c(S(=O)(=O)O)c1 [Molecule 7], the Kd (CCL5) is reported as 35 µM.

In the case of persulfated Stach [StachS], the IC50 (CCL5 binding to heparin) is reported as 18.6 ± 4.34 µM, the “reduction of paw thickness compared with dexamethasone” value ([1]; 10 mg/kg s.c. at −30 min and +8 h) is reported as “comparable effect” and the “inhibition of paw swelling” value [1] is reported as 41%. For the same compound, the “Anticoagulant activity (heparin-equivalent)” value [2] was 6.90 ± 2.69 IU/mg.

O=C(O)c1cc(S(=O)(=O)O)ccc1O [Molecule 1] was tested, and the IC50 (CCL5 binding to heparin) was 320 µM, the “selective binding to CCL5” value (CCL5) was “confirmed to be selectively binding to CCL5” and the Kd (CCL5) was 20 µM. For the same compound, the “effect on CCL5 binding to CCR5” value (CCR5 [4]) was “no effect”, the “competition of CCL3 binding to CCR1” value (CCR1) was “no competition” and the IC50 (CCR1 (Homo sapiens)) was 6.7 µM. For the same compound, the “cell recruitment to the peritoneum” value [5] was “inhibited cell recruitment to the peritoneum in a dose dependent manner” and the “competition of CCL3 binding to CCR5” value (CCR5 [6]) was “no competition”.

With O=S(=O)(O)c1cc(O)ccc1O [Molecule 5] the Kd (CCL5) was > 500 µM.
